Test results: ChEMBL document CHEMBL5465560, “Selectivity Literature for EUbOPEN Chemogenomic Library” (2024)

Tests used:
[1] = target: Cyclin-dependent kinase 4/cyclin D1 (Homo sapiens) (UniProt P11802+P24385); settings: at 10 µM
[2] = target: Fibroblast growth factor receptor 2 (Homo sapiens) (UniProt P21802); assay: Selectivity interaction (Kinase screening (Nanosyn)) EUB0000604a FGFR2
[3] = target: Eukaryotic translation initiation factor 2-alpha kinase 1 (Homo sapiens) (UniProt Q9BQI3); assay: Selectivity interaction (KinomeScan (DiscoverX)) EUB0001049a EIF2AK1; settings: at 1 µM
[4] = tested on: Hepatocyte growth factor receptor (Homo sapiens), P08581 [M1250T]; assay: (§1) Selectivity interaction (KinomeScan (DiscoverX)) EUB0001049a MET; settings: at 1 µM
[5] = tested on: Hepatocyte growth factor receptor (Homo sapiens), P08581 [Y1235D]; assay: as §1; settings: at 1 µM
[6] = target: Hepatocyte growth factor receptor (Homo sapiens, UniProt P08581); assay: as §1; settings: at 1 µM
[7] = target: Epithelial discoidin domain-containing receptor 1 (Homo sapiens) (UniProt Q08345); assay: Selectivity interaction (Kinase panel (Invitrogen)) EUB0000639a DDR1; settings: at 200 nM
[8] = target: Tyrosine-protein kinase Fyn (Homo sapiens) (UniProt P06241); assay: Selectivity interaction (ActivX KiNativ screen (kinase selectivity in THP-1 cell lysates)) EUB0000639a FYN; format: subcellular; settings: lysate, at 1 µM
[9] = target: MAP/microtubule affinity-regulating kinase 3 (Homo sapiens) (UniProt P27448); assay: Selectivity interaction (ActivX KiNativ screen (kinase selectivity in THP-1 cell lysates)) EUB0000639a MARK3; format: subcellular; settings: lysate, at 1 µM
[10] = target: Platelet-derived growth factor receptor beta (Homo sapiens, UniProt P09619); assay: Selectivity interaction (Kinase panel (Carna Biosciences)) EUB0001542aTs PDGFRB; settings: at 1 µM
[11] = target: Cyclin-dependent kinase 14/Cyclin-Y (Homo sapiens) (UniProt O94921+Q8ND76); assay: Selectivity interaction (LanthaScreen Eu Kinase Binding Assay) EUB0001632a CDK14; format: protein-complex assay; settings: at 10 µM
[12] = target: B2 bradykinin receptor (Homo sapiens) (UniProt P30411); assay: Selectivity interaction (Eurofins CEREP Diversity Profile (receptors and ion channels)) EUB0000279b BDKRB2; settings: at 10 µM
[13] = target: RAC-beta serine/threonine-protein kinase (Homo sapiens) (UniProt P31751); assay: Selectivity interaction (KinomeScan (DiscoverX)) EUB0001079a AKT2; settings: at 1 µM
[14] = target: Dual specificity tyrosine-phosphorylation-regulated kinase 1A (Homo sapiens, UniProt Q13627); assay: Selectivity interaction (KinomeScan (DiscoverX)) EUB0001079a DYRK1A; settings: at 1 µM
[15] = target: T1, Dual specificity protein kinase TTK (Homo sapiens) (UniProt P33981); assay: Selectivity interaction (ProQinase) EUB0000171b TTK
T1 sequence (whole entry): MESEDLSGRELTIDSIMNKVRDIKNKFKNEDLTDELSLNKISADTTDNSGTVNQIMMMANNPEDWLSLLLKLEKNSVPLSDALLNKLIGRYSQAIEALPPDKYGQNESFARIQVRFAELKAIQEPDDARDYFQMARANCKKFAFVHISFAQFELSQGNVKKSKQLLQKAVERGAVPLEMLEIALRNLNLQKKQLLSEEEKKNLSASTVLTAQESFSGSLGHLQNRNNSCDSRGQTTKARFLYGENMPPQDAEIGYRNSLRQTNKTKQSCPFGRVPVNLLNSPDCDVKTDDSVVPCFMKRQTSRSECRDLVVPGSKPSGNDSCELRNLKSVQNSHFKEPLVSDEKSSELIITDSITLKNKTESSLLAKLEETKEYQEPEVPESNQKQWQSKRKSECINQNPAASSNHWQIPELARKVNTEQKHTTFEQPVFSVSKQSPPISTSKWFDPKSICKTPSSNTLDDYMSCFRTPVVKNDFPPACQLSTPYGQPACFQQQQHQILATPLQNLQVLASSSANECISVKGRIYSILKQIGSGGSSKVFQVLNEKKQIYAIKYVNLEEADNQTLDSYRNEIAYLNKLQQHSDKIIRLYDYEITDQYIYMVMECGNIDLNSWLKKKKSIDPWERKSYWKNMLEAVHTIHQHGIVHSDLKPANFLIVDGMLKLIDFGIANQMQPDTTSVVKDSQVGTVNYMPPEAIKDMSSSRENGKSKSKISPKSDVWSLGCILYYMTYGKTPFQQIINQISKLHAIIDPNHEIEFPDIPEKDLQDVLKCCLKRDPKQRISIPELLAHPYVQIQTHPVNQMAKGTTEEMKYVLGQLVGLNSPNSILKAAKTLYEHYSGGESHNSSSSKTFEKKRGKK

[16] = target: T2, Serine/threonine-protein kinase PLK4 (Homo sapiens) (UniProt O00444); assay: Selectivity interaction (KinomeScan (DiscoverX)) EUB0000092b PLK4; settings: at 10 µM
T2 sequence (whole entry): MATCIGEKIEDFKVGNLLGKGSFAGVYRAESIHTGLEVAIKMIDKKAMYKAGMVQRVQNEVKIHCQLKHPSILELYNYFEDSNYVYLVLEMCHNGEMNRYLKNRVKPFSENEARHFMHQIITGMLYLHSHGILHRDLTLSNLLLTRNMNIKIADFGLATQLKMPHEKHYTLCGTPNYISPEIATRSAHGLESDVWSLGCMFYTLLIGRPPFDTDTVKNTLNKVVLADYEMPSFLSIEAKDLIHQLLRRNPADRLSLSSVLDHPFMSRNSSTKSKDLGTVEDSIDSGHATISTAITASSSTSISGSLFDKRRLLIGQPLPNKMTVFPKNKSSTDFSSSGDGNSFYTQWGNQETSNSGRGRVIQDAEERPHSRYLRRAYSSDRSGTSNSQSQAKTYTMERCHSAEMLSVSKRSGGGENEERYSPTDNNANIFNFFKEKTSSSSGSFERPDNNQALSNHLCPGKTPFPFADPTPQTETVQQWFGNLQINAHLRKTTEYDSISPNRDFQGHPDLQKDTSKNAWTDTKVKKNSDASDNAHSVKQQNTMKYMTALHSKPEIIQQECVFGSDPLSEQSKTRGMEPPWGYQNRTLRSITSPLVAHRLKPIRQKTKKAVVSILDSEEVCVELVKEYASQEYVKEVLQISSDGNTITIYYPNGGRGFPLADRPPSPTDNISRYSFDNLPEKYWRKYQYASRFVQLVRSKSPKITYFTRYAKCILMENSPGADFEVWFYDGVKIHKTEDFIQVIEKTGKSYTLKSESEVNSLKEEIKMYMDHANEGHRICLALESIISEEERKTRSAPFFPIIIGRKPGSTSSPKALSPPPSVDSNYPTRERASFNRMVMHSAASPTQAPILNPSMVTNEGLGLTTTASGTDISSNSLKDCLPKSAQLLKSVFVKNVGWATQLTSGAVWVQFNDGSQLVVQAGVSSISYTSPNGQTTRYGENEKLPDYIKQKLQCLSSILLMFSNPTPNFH

[17] = target: Serine/threonine-protein kinase PAK 6 (Homo sapiens) (UniProt Q9NQU5); assay: Selectivity interaction (KinomeScan (DiscoverX)) EUB0000655a PAK6; settings: at 10 µM

Fibroblast growth factor receptor 2 (Homo sapiens), sequence (P21802 22-821 limits assumed): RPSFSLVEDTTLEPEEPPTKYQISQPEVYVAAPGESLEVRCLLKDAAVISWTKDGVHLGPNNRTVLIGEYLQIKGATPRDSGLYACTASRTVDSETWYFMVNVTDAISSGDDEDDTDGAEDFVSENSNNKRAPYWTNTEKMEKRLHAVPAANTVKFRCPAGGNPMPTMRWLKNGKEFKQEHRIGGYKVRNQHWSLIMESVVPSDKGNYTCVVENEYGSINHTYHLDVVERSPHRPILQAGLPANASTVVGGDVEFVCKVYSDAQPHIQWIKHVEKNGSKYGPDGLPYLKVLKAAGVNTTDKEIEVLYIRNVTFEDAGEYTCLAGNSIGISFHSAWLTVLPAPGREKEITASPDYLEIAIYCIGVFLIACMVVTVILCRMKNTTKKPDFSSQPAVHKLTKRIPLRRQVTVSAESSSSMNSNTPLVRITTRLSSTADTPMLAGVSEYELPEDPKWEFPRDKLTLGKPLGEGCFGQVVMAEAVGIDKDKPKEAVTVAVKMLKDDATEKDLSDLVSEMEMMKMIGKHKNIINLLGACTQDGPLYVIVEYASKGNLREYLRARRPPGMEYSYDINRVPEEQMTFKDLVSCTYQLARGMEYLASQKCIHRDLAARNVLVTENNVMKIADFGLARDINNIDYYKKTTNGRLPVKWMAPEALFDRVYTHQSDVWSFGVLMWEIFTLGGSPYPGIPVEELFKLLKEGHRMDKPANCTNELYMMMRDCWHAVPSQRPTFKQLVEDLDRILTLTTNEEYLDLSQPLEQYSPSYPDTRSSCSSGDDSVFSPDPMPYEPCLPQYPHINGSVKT
Hepatocyte growth factor receptor, sequence (P08581 whole entry, the tested form may be a part): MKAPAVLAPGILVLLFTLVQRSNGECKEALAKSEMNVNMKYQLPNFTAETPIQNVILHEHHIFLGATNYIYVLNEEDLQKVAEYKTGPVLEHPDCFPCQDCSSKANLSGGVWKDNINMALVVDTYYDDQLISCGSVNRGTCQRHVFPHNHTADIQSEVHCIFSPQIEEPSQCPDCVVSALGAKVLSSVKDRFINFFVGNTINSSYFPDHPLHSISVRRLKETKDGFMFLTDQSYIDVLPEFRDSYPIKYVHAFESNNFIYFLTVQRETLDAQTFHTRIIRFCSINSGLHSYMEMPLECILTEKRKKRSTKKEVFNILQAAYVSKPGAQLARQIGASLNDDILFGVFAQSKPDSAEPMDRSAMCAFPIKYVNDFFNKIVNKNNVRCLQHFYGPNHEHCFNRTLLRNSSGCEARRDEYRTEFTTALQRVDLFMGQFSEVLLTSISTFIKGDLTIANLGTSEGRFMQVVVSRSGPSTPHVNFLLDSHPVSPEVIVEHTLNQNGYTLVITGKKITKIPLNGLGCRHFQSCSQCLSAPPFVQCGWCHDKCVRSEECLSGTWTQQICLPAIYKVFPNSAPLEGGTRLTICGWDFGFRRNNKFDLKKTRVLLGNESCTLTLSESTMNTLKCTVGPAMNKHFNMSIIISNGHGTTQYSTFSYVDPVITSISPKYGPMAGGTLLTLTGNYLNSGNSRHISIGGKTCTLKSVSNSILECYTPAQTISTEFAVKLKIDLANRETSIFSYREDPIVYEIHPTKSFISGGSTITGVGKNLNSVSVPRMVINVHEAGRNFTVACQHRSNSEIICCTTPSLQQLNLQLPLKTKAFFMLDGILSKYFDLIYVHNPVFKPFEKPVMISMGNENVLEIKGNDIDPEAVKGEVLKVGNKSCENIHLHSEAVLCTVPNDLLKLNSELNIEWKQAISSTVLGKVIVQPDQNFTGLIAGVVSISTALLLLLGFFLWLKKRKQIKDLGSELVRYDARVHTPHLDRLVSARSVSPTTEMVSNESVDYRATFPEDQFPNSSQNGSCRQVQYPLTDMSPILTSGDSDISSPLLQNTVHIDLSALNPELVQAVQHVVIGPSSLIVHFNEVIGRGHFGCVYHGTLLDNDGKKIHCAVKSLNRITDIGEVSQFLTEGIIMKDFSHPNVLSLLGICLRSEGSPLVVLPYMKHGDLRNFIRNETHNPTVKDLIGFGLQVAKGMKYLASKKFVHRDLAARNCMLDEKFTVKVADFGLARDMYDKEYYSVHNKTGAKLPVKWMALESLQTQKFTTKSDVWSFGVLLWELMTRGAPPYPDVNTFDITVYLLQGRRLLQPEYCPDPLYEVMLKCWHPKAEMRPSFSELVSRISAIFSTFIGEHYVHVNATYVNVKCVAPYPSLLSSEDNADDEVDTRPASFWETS
Hepatocyte growth factor receptor (Homo sapiens), P08581 [M1250T], sequence (P08581 whole entry M1250T): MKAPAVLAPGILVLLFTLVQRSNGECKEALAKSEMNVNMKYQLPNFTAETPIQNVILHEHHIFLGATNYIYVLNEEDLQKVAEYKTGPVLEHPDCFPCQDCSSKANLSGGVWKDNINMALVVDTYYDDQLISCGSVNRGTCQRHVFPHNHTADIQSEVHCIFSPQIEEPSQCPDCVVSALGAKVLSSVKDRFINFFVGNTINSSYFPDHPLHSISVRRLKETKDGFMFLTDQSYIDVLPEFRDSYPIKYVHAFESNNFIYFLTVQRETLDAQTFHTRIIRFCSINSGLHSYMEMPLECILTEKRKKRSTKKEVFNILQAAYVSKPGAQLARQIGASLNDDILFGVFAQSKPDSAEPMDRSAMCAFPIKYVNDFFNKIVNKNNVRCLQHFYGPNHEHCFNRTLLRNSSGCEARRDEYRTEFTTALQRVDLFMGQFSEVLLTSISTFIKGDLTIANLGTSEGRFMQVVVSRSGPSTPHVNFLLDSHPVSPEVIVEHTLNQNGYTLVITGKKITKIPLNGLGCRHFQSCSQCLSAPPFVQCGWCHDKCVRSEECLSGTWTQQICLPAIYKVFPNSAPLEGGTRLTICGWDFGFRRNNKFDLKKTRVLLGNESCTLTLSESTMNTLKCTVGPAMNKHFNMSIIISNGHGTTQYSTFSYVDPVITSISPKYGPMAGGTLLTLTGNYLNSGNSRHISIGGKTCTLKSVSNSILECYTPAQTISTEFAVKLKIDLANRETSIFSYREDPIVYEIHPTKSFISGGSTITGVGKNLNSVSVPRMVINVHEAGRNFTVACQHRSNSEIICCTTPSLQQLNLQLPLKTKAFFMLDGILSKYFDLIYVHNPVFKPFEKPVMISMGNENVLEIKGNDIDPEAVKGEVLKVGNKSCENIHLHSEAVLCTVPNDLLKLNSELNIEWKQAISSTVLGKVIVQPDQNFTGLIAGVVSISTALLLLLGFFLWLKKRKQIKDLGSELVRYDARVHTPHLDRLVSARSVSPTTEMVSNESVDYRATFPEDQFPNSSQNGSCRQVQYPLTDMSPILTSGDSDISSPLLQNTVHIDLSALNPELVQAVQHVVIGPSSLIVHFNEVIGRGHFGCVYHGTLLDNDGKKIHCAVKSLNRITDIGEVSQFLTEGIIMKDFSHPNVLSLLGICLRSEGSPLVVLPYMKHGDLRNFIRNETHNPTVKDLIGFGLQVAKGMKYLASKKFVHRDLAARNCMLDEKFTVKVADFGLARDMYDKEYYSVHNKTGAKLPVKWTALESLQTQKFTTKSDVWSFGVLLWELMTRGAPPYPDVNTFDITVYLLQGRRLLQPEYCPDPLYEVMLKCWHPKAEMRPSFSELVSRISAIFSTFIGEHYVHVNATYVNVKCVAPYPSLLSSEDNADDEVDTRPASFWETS
B2 bradykinin receptor (Homo sapiens), sequence (P30411 whole entry): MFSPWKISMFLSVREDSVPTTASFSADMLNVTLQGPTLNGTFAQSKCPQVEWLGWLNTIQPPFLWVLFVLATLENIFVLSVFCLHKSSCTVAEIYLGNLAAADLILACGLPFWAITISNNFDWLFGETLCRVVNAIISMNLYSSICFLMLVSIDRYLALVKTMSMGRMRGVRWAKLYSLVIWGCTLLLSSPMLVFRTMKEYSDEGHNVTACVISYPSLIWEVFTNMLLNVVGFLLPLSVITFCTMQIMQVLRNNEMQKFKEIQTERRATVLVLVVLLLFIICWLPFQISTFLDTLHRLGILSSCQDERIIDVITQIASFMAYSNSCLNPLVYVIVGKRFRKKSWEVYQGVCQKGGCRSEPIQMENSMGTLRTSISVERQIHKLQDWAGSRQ
Epithelial discoidin domain-containing receptor 1 (Homo sapiens), sequence (Q08345 whole entry, the tested form may be a part): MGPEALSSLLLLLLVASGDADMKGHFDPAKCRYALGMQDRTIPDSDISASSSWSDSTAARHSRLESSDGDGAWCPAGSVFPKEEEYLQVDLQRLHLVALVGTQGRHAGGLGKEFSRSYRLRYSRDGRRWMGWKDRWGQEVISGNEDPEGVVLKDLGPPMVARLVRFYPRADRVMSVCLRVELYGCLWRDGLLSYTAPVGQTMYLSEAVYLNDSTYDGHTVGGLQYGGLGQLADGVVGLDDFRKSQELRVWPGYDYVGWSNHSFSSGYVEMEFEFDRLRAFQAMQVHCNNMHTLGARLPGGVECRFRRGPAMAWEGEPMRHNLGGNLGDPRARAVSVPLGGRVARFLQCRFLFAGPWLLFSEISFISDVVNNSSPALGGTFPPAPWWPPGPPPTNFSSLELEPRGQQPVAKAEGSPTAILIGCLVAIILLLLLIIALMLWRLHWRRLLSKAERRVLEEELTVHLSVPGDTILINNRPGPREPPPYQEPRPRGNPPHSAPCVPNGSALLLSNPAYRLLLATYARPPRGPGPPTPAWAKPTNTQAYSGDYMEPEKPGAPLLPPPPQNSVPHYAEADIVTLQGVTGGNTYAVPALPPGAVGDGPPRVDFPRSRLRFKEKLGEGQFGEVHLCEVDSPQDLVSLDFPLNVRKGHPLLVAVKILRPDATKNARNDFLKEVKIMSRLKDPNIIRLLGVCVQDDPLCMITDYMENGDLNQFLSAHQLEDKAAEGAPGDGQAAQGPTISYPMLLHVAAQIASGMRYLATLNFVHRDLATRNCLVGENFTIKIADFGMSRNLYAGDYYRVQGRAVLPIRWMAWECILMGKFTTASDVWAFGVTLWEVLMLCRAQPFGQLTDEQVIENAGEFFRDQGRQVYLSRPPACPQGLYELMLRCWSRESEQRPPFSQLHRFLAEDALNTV

Work on `Cc1cc([C@@H](C)Nc2ccccc2C(=O)O)c2nc(N3CCOCC3)cc(=O)n2c1` [AZD-6482] yielded a % of control [1] of 100%.
Molecule `Cc1cnc(Nc2ccc(F)cc2Cl)nc1-c1c[nH]c(C(=O)N[C@H](CO)c2cccc(Cl)c2)c1` has a % of inhibition [2] of 12%.
`COc1cc(Nc2nc(C)cc(-c3cnn4nc(OC)ccc34)n2)cc(C(F)(F)F)c1` was tested, and the % of control [3] was 89%, the % of control [4] was 100% and the % of control [5] was 82%. For the same molecule, the % of control [6] was 93%.
For `CC[C@@H]1[C@H](F)C(=O)N[C@@H]1COc1nccc2cc(C(N)=O)c(OC)cc12` [ZIMLOVISERTIB], the % of inhibition [7] was -1.2%, the % of inhibition [8] was -11% and the % of inhibition [9] was 21.6%.
`Cn1cc(Nc2nccc(N3CC4CCC(C3)N4C(=O)[C@@H]3CC3(F)F)n2)cn1` gave a % of inhibition [10] of 66%.
Work on `Cn1cc(-n2cnc3c(NCc4nc5cc(Cl)c(Cl)cc5[nH]4)nc(N4CCOCC4)nc32)cn1` yielded a % of inhibition [11] of -159%.
`CC(=O)c1cc(-c2ccccc2OCC2CC2)c2ncccn12` showed a % of control [12] of 112%.
For `Nc1cnc(N2CCc3cc(S(=O)(=O)Nc4c(F)cc(Cl)cc4F)cc(N4CCCC4=O)c32)nc1` [TP-020n], the % of control [13] was 100% and the % of control [14] was 80%.
`C=CC(=O)Nc1cccc(C(=O)Nc2ccc(Nc3cc(-c4[nH]c(SC)nc4C)ccn3)cc2)c1` gave a % of control ([15]; at 1 µM) of 72% and a % of control ([15]; at 5 µM) of 34%.
`CCC(=O)N1CCN(c2ccc(-n3c(=O)ccc4cnc5ccc(-c6cnc7ccccc7c6)cc5c43)cc2C(F)(F)F)CC1` showed a % of control [16] of 100%.
With `CN(C)CCOc1ccc(-c2nc(-c3ccncc3)c(-c3ccc4c(c3)CC/C4=N\O)[nH]2)cc1` the % of control [17] was 100%.
